This is an account of results in PMC12172326 (Journal of Biomedical Science, 2025).

Broadly, the viability is a read-out of living cells in per cent, often relative to untreated cells.

Like-named read-outs stand apart in the source and are kept apart here.

The conditions of series [1]: human; cited from earlier work.
Series [2] has as its system LPS-induced cytokines (TNF-α, IL-6, IL-1β, KC/GRO, IL-10). The experiment in a line: systemic LPS challenge in mice, plasma and cerebral cortex cytokines. Format: in vivo, mouse. As to the method: 8-week-old male C57/BL6 J mice (25–30 g; n = 28) were randomly assigned to five experimental groups. […] Rolipram, a discontinued PDE4 inhibitor, with known anti-inflammatory activity was used as a positive control. One hour later, animals were administered either LPS (3 mg/kg, serotype 0111:B4, Sigma Aldrich, in normal saline, 0.1 mL/10 g) or an alike volume of saline (without LPS) via the I.P. route. The LPS dose was selected from prior pilot studies to provide a substantial but sub-maximal rise in plasma pro-inflammatory cytokine levels, in line with our prior research. […] Four hours after LPS administration, animals were euthanized, and blood and brain tissue were collected and placed on wet ice. Plasma was quickly separated from blood by centrifugation (10,000g, 5 min, 4 °C), and together with a brain sample (cerebral cortex), were stored at − 80 °C. At a later time, cerebral cortex samples were sonicated in a TRIS-based lysis buffer (Mesoscale Discovery) with 3 × protease/phosphatase inhibitors (Halt™ Protease and Phosphatase Inhibitor Cocktail, Thermo Fisher Scientific, Waltham, MA, USA). Samples were then centrifuged (10,000g, 10 min, 4 °C) and protein concentrations were quantified by bicinchoninic acid assay (BCA, Thermo Fisher Scientific). Mouse plasma and cerebral cortex samples were analyzed by multi-pro-inflammatory cytokine ELISA (V-PLEX Pro-inflammatory Panel 1 Mouse Kit, Mesoscale Discovery) following the manufacturer’s protocol.

The conditions of series [3]: rat; cited from earlier work.
The next series is described as follows: aqueous solubility. It is filed as physicochemical. How it is done: This coarse drug suspension was transferred into Eppendorf microtubes containing approximately 0.4 g of 0.1–0.2 mm yttrium-stabilized zirconia-silica beads (Silibeads® Typ ZY Sigmund Lindner, Germany). The drug was vortexed twice, at 3000 rpm for 45 min, using a beads-milling cell disruptor (Disruptor Genie®, Scientific Industries, USA). The resulting nanosuspension was collected from each microtube and sieved through a 40 µm filter (Cell Strainer, Falcon # 35234) to remove the zirconia-silica beads. […] The stock drug concentration was 10.83 mg/ml (37.4 mM). The drug vehicle was essentially the same ratio of Tween 80 and water, processed in the identical manner as the drug preparation.

The nature of series [4]: LPS-induced inflammation in IMG microglial cells (viability, nitrite, TNF-α). It is filed as cell-based, mouse. The settings on record: mouse, IMG immortalized microglial cells, IMG, 0.6 to 60 μM, LPS 10 ng/mL, MTS, read-out: cellular viability. As to the method:
(§1) IMG cell culture: Mouse immortalized microglial ‘IMG’ cells (Sigma-Aldrich; St. Louis, MO, USA; Cat # SCC-134, RRID:CVCL HC49) were cultured in High Glucose DMEM (Sigma Cat. No. D6546) with 10% heat-inactivated fetal bovine serum (Gibco™ Cat # 10082147), 1 × L-Glutamine (Sigma Cat # TMS-002-C) and 100 U/mL penicillin/streptomycin (Gibco™ Cat # 15140148). IMG cell subculturing was performed according to the product datasheet. In brief, cells were detached from culture plates with Accutase® (Sigma, Cat # A6964), collected, and centrifuged, with the cell pellet subsequently resuspended in media. The cells were then plated for experiments at specified densities and used for a maximum of 10 passages.
(§2) For cytokine/nitrite assessment studies, cells were grown in 24-well (40 K cells/well) tissue culture-treated plates in 500 μl of media. […] This LPS concentration induced a submaximal inflammatory response in IMG pilot studies. Following a 24 h incubation, conditioned media was collected and replaced with 500 μl fresh media to allow assessment of cell viability, TNF-α (ELISA MAX™ Deluxe Set Mouse TNF-α, BioLegend, CA, USA) and nitrite levels (Griess Reagent System, Promega, Madison, WI, USA), according to manufacturer’s instructions.

The next series has as its system IMG cells. The series is described as above. Format: cell-based, mouse. The settings on record: 24 h. How it is done: as §1, §2
The nature of series [5]: ex vivo stability in mouse plasma. Format: in vitro ADME. The settings on record: 100 μg/ml, room temperature, 0-180 min. As to the method: An ex vivo evaluation of drug stability was conducted in mouse and human plasma samples (WuXi AppTec, Shanghai, China). […] Samples were, thereafter, incubated at room temperature for 0, 15, 30, 60, 120, and 180 min before immediate drug extraction. […] Extraction was performed by adding ethyl acetate containing the internal standard (donepezil—known to undergo first-pass hepatic metabolism) to the spiked sample (100 μL), vortexed for 1 min, and centrifuged at 13,000 rpm, 4 °C for 10 min. The supernatant was used for LC–MS/MS analysis.
LC–MS/MS analysis was performed with a Vanquish Flex UHPLC (Thermo Scientific) and a Orbitrap Exploris 240 mass spectrometer (Thermo Scientific). Samples were separated on a C18 UHPLC column (100 mm × 2.1 mm, 3 μm; Thermo Scientific). The mobile phase A for LC separation was 0.1% formic acid and the mobile phase B was 0.1% formic acid in methanol. The chromatography gradient was designed for a linear increase from 5% B in 1 min, 5% B to 95% B in 8 min, 95% B in 3 min, and 5% B in 3 min. The flow rate was maintained at 0.3 mL/min. Mass spectra were acquired using the data-dependent Top 4 MS2 (ddMS2) method with a mass scan (100–1000 m/z) and 120,000 MS resolution.

For series [6] the following is noted: cited from earlier work.
[7] abbreviates: 26.5 and 53 mg/kg I.P. 1 h before LPS 3 mg/kg, 4 h, p < 0.05 to < 0.0001.
The mark [8] stands for this setting: cerebral cortex, 26.5 and 53 mg/kg I.P., LPS 3 mg/kg, 4 h.

Turning to `Nc1cccc2c1C(=S)N(C1CCC(=O)NC1=O)C2=O` (stereo not shown) [3-MP, 3-monothiopomalidomide], the “stability in ex vivo plasma and liver homogenate samples” value in series [1] was “relatively stable”. In addition, in series [2] (setting [7]), the “LPS-mediated elevation in plasma IL-6” value is on record as “lowered” and the “LPS-mediated elevation in plasma TNF-α” value was “lowered”. Moreover, in series [2] (setting [8]), the “LPS-induced brain IL-1β” value is “dose-dependent reduction”, the “LPS-induced brain IL-6” value is “dose-dependent reduction”, the “LPS-induced brain KC/GRO” value is recorded as “dose-dependent reduction” and the “LPS-induced brain TNF-α” value is listed as “dose-dependent reduction”. Further, in series [2] (plasma and brain, 26.5 and 53 mg/kg I.P., compared to LPS treatment), the “levels of the anti-inflammatory cytokine IL-10” value is “unaffected”. For the same compound, the “stability in ex vivo plasma and liver homogenate samples” value in series [3] is “relatively stable”. Besides, the aqueous solubility result in “aqueous solubility” is “poorly aqueous soluble”. Moreover, the viability at 24 h in series [4] was greater than 90%. In addition, the IMG cell viability result in the series on IMG cells (100 μM, without LPS, vs vehicle control, MTS) is recorded as “reduced”. For the same compound, in the series on IMG cells (IMG, LPS 10 ng/mL, p < 0.001), the “concentration significantly reducing LPS-induced TNF-α” value is no less than 10 µM. Also, in the series on IMG cells (IMG, LPS 10 ng/mL, p < 0.05), the “concentration significantly reducing LPS-induced nitrite” value is no less than 30 µM. In addition, the “ex vivo stability in mouse plasma” value in series [5] is reported as “stable”. Also, in series [6], the oral bioavailability is 38.5%.
